Test results reported in patent US10562864B2, “Chemical modulators of immune checkpoints and therapeutic use” (Duke University, priority 2015, dated 2020).
“Also recorded” adds a separate entry of the source.

Key:
PD-1 = assay: Western blot analysis of PD-1 protein level in 4T1 cells stably expressing PD-1; assay type: cell-based, murine; set-up: key to Decrease in PD1 protein level by western blot at 24 h at 5 μM: † 3+ Scale with + least and +++ most; † 3+ Scale with + least and +++ most; † 3+ Scale with + least and +++ most; key to Decrease in PD1 protein level by western blot at 4 days at 3 μM: ‡ 3+ Scale with + least and +++ most; ‡ 3+ Scale with + least and +++ most; ‡ 3+ Scale with + least and +++ most; conditions: for Decrease in PD1 protein level by western blot at 4 days at 3 μM / Decrease in PD1 protein level by western blot at 24 h at 5 μM / PD-1 protein levels by western blot after 4 days: 4T1-PD1 cells; for PD-1 protein levels by western blot at 24 hours: 4T1 cells stably expressing PD-1, FIG. 9, 10, 12; for PD-1 protein levels by western blot after 4 days: FIG. 13
Experimental: Murine breast cancer cells were grown in DMEM medium supplemented with 10% FBS and penicillin and streptomycin antibiotics at 37° C. in 5% CO2.
4T1 Murine breast cancer cells stably expressing PD1 were seeded in 12-well plates (30 k cells/well) and incubated overnight. […] Cells were lysed with SDS sample buffer and lysates were subjected to western blot analysis
4T1-PD1 cells were seeded in 12-well plates (100 k cells/well) overnight. On the next day, compounds were added and the cells incubated for 4 days. The cells were then lysed in SDS sample buffer and lysates were subjected to western blot analysis

phospho-Erk1/2 = assay: Western blot analysis of phospho-Erk1/2 levels in 4T1-PD1 cells; assay type: cell-based, murine; conditions: 24 hours, FIG. 11, 12
Experimental: 4T1-PD1 cells (30K cells/per well) were seeded in 12-well plates overnight. On the following day, the compounds were added and the cells were incubated for 24 hours. The cells were then lysed in SDS sample buffer and analyzed by western blots.
4T1-PD1 cells (30K cells/per well) were seeded in 12-well plates overnight. On the following day, the compounds were added and the cells were incubated for 24 hours. The cells were then lysed in SDS sample buffer and analyzed by western blot.
4T1 Murine breast cancer cells stably expressing PD1 were seeded in 12-well plates (30 k cells/well) and incubated overnight. On the next day, compounds were added to produce the final concentration desired and the cells were incubated for […]. Cells were lysed with SDS sample buffer and lysates were subjected to western blot analysis

PD1-GFP [1] = target: T1, PD1-GFP (Homo sapiens, UniProt Q15116); assay: Internalization assay (PD1-GFP), confocal imaging of PD1-GFP stable U2OS cells; assay type: cell-based; set-up: Internalized PD1-GFP punctate; 6 hr (10 μM): key to the marks not given beside the values; conditions: 37° C.
T1 construct: expressed in transfected cells; host or cells: U2OS
T1 sequence (Q15116 25-288): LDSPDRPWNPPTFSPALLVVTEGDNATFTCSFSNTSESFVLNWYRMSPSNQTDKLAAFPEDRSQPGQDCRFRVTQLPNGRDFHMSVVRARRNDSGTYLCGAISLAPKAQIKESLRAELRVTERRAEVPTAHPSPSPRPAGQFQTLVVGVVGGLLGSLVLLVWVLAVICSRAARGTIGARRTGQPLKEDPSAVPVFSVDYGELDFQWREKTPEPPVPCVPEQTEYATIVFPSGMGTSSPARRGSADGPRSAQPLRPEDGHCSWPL
Experimental: U2OS cells were transfected with PD1-GFP and stable receptor-expressing cells were selected using 0.5 mg/ml Geneticin in the culture medium. […] The plates were incubated overnight at 37° C. in 5% CO2. The following day, chemical compounds (10 mM in DMSO) were diluted 1:200 in culture medium, 6.25 μL of which was then added to each well of cells to produce a 1:1000 dilution overall and final compound concentration of 10 μM per well. The cells were incubated with compound for 6 h at 37° C. prior to fixation in PBS containing 0.5% paraformaldehyde for 30 min at room temperature. The wells were then washed with PBS three times and stored at 4° C. The cells were imaged using a Zeiss LSM-510 confocal microscope.

CTLA4-GFP = target: T2, CTLA4-GFP (Homo sapiens, UniProt P16410); assay: CTLA4-GFP internalization, confocal imaging of CTLA4-GFP stable U2OS cells; assay type: cell-based; set-up: key to Internalized CTLA4-GFP punctate; 6 hr (10 μM): **4+ Scale with + least and ++++ most; **4+ Scale with + least and ++++ most; **4+ Scale with + least and ++++ most; **4+ Scale with + least and ++++ most
T2 construct: expressed in transfected cells; host or cells: U2OS
T2 sequence (P16410 36-223): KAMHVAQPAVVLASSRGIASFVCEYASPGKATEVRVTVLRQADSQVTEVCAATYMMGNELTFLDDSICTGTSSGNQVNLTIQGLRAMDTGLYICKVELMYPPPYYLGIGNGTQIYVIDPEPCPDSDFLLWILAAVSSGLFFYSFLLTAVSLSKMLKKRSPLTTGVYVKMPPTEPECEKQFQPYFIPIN

PDL1-GFP = target: T3, PDL1-GFP (Homo sapiens, UniProt Q9NZQ7); assay: Confocal imaging of PDL1-GFP stable U2OS cells; assay type: cell-based; conditions: 10 μM, 6 h, 37° C., FIG. 2
T3 construct: expressed in transfected cells; host or cells: U2OS
T3 sequence (Q9NZQ7 19-290): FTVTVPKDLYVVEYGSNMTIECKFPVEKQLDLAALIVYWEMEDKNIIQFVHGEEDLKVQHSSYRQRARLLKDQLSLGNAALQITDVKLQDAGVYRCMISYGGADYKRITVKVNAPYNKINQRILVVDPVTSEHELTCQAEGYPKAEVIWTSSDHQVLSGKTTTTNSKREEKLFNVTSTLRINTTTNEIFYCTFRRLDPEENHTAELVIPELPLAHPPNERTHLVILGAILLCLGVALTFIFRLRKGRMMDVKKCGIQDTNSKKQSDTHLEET

PD1-GFP [2] = target: T1, PD1-GFP; assay: Internalization assay (PD1-GFP), confocal imaging of PD1-GFP stable U2OS cells; assay type: cell-based; conditions: 0.25 μM to 10 μM, 6 h, see FIG. 6/7

| Structure (SMILES) | Decrease in PD1 protein level by western blot at 24 h at 5 μM (PD-1) | PD-1 protein levels by western blot at 24 hours (PD-1) | Internalized PD1-GFP punctate; 6 hr (10 μM) (PD1-GFP [1]) | further results |
| --- | --- | --- | --- | --- |
| O=[N+]([O-])c1ccc2[nH]c(-c3cc(F)ccc3O)nc2c1 [Compound 3, 4-fluoro-2-(5-nitro-1H-benzo[d]imidazol-2-yl)phenol] | ++ | lower PD-1 and phopho-Erk1/2 protein levels | – | Decrease in PD1 protein level by western blot at 4 days at 3 μM (PD-1): +++; PD-1 protein levels by western blot after 4 days (PD-1): lower PD-1 protein levels; phospho-Erk1/2 levels by western blot (phospho-Erk1/2): lower PD-1 and phopho-Erk1/2 protein levels |
| O=C(Nc1ccc([N+](=O)[O-])cc1Cl)c1cc(Cl)ccc1O [Compound 10, niclosamide] | +++ | decreases PD-1 protein levels; also recorded: lower PD-1 protein levels | ++++ | PD1-GFP internalization in confocal images (PD1-GFP [1]; 10 μM, 6 h, FIG. 1): internalized PD1-GFP vesicles; CTLA4-GFP vesicles in confocal images (CTLA4-GFP; 10 μM, 6 h, 37° C., FIG. 3): aggregated CTLA4-GFP vesicles; Internalized CTLA4-GFP punctate; 6 hr (10 μM) (CTLA4-GFP; 6 hr): +++; PD-1 protein levels by western blot at 6 hours (PD-1; 6 hrs, 4T1 cells stably expressing PD-1, FIG. 8): decreases PD-1 protein levels; phospho-Erk1/2 levels by western blot (phospho-Erk1/2): lower phospho-Erk1/2 levels; PDL1-GFP vesicles in confocal images (PDL1-GFP): aggregated PDL1-GFP vesicles; EC50 (PD1-GFP [2]): 3 µM |
| O=C(Nc1ccc(C(F)(F)F)cc1Cl)c1cc(Cl)ccc1O [Compound 5, 5-chloro-N-(2-chloro-4-(trifluoromethyl)phenyl)-2-hydroxybenzamide] | – | – | ++++ | – |
| CCCCc1oc2ccccc2c1C(=O)c1cc(I)c(OCCN(CC)CC)c(I)c1 [amiodarone] | – | – | – | PD-1 protein levels by western blot after 4 days (PD-1): lower PD-1 protein levels |
| O=[N+]([O-])c1ccc2[nH]c(-c3cc(Cl)ccc3O)nc2c1 [Compound 2, 4-Chloro-2-(5-nitro-1H-benzo[d]imidazol-2-yl)phenol] | ++ | lower PD-1 and phopho-Erk1/2 protein levels | ++++ | Decrease in PD1 protein level by western blot at 4 days at 3 μM (PD-1): +++; PD-1 protein levels by western blot after 4 days (PD-1): lower PD-1 protein levels; phospho-Erk1/2 levels by western blot (phospho-Erk1/2): lower PD-1 and phopho-Erk1/2 protein levels |
| CCCCCCCC(=O)Oc1ccc(Cl)cc1C(=O)Nc1ccc([N+](=O)[O-])cc1Cl [Compound 7, 4-Chloro-2-((2-chloro-4-nitrophenyl)carbamoyl)phenyl octanoate] | ++ | lower PD-1 protein levels | ++++ | EC50 (PD1-GFP [2]): 3 µM |
| CC(=O)Oc1ccccc1C(=O)Nc1ncc([N+](=O)[O-])s1 [Compound 12, nitazoxanide] | + | lower PD-1 and phopho-Erk1/2 protein levels | ++ | phospho-Erk1/2 levels by western blot (phospho-Erk1/2): lower PD-1 and phopho-Erk1/2 protein levels |
| CC(NCCC(c1ccccc1)c1ccccc1)c1ccccc1 (centres unmarked) [Compound 15] | – | – | ++ | – |
| CC[C@@H](C(=O)[C@@H](C)[C@@H](O)[C@H](C)CCc1ccc(C)c(O)c1C(=O)O)[C@H]1O[C@](CC)([C@H]2CC[C@](O)(CC)[C@H](C)O2)C[C@@H]1C [Compound 14, lasalocid] | ++ | lower PD-1 protein levels | ++++ | phospho-Erk1/2 levels by western blot (phospho-Erk1/2): lower phospho-Erk1/2 levels |
| O=S(=O)(Nc1ccc(C(F)(F)F)cc1Cl)c1cc(Cl)ccc1O [Compound 4, 5-Chloro-N-(2-chloro-4-(trifluoromethyl)phenyl)-2-hydroxybenzenesulfonamide] | – | – | ++ | – |
| O=C(Nc1cc(Cl)cc(Cl)c1)c1cc(Cl)ccc1O [Compound 6, 5-chloro-N-(3,5-dichlorophenyl)-2-hydroxybenzamide] | – | – | ++++ | – |
| CCN(CC)CCCC(C)Nc1ccnc2cc(Cl)ccc12 (centres unmarked) [Compound 19] | – | – | +++ | – |
| CCCCc1oc2ccccc2c1C(=O)c1cc(I)c(OCCN(CC)CC)c(I)c1 [Compound 13] | – | – | +++ | Decrease in PD1 protein level by western blot at 4 days at 3 μM (PD-1): ++ |
| COc1ccc2cc1Oc1ccc(cc1)C[C@H]1c3cc(c(OC)cc3CCN1C)Oc1c(OC)c(OC)cc3c1[C@H](C2)N(C)CC3 [Compound 17] | – | – | +++ | Decrease in PD1 protein level by western blot at 4 days at 3 μM (PD-1): ++ |
| O=C(Nc1ccc(C(F)(F)F)cc1)c1cc(Cl)cc2[nH]c(C(F)(F)F)nc12 [Compound 9, 6-Chloro-2-(trifluoromethyl)-N-(4-(trifluoromethyl)phenyl)-1H-benzo[d]imidazole-4-carboxamide] | – | – | ++++ | – |
| CCN(CC)CCCC(C)Nc1c2ccc(Cl)cc2nc2ccc(OC)cc12 (centres unmarked) [Compound 16] | – | – | +++ | – |
| Cc1ccc(S(=O)(=O)Nc2ccc(Br)cc2C(=O)Nc2ccc(C(F)(F)F)cc2)cc1 [Compound 8, 5-Bromo-2-((4-methylphenyl)sulfonamido)-N-(4-(trifluoromethyl)phenyl)benzamide] | – | – | ++++ | – |
| Cc1cc(/C=C/c2ccc3cc(N(C)C)ccc3[n+]2C)c(C)n1-c1ccccc1 [Compound 18] | – | – | ++++ | Decrease in PD1 protein level by western blot at 4 days at 3 μM (PD-1): +++ |
| O=[N+]([O-])c1ccc(-c2nnc(-c3cc(Cl)ccc3O)[nH]2)cc1 [Compound 1, 4-Chloro-2-(5-(4-nitrophenyl)-4H-1,2,4-triazol-3-yl)phenol] | – | – | ++++ | – |
| O=C(Nc1ncc([N+](=O)[O-])s1)c1ccccc1O [Compound 11] | – | – | ++ | – |
